Assay results from US4276289A, “Antitumor glycosides, their preparation and use” (Farmitalia Carlo Erba, S.p.A., priority 1979, dated 1981).
In brackets after ≈: the same amount, converted by molar mass. Like-named read-outs stand apart in the source and are kept apart here.

Tests used:
[1] = test system: HeLa cells; test: in vitro test against HeLa cells; assay type: cell-based; settings: Homo sapiens, read-out: ID50 on HeLa Cells
Procedure: The biological activity of the compounds according to the invention was tested in vitro against HeLa cells in comparison with daunorubicin and doxorubicin.
Compound ID50 on HeLa Cells (ng/ml)

[2] = test system: P 388 leukemia; test: in vivo activity against P 388 leukemia (treatment i.p. on day 1 after tumor implantation)

`COc1cccc2c1C(=O)c1c(O)c3c(c(O)c1C2=O)C[C@@](O)(C(C)=O)C[C@@H]3O[C@H]1C[C@@H](N)[C@@H](OC)[C@H](C)O1` [3',4'-diepi-4'-O-methyl daunorubicin, 3',4'-diepi-4'-O-methyl-daunorubicin] was tested, and the IC50 ([1]; in vitro, HeLa cells) was 0.036 mg/L (≈ 0.0665 µM), the “LTS (long term survivors)” value ([2]; 6.6 mg/kg) was 0/8 and the T/C % ([2]; 6.6 mg/kg) was 145%. For the same compound, the Toxicity ([2]; 6.6 mg/kg) was 0/8, the “LTS (long term survivors)” value ([2]; 10 mg/kg) was 0/8 and the T/C % ([2]; 10 mg/kg) was 154%. The Toxicity ([2]; 10 mg/kg) was 0/8, the “LTS (long term survivors)” value ([2]; 15 mg/kg) was 0/18 and the Toxicity ([2]; 15 mg/kg) was 0/18. For the same compound, the “LTS (long term survivors)” value ([2]; 22 mg/kg) was 0/10, the T/C % ([2]; 22 mg/kg) was 222% and the Toxicity ([2]; 22 mg/kg) was 0/10. The “LTS (long term survivors)” value ([2]; 33 mg/kg) was 1/10, the T/C % ([2]; 33 mg/kg) was 231% and the Toxicity ([2]; 33 mg/kg) was 2/10.

`COc1cccc2c1C(=O)c1c(O)c3c(c(O)c1C2=O)C[C@@](O)(C(=O)CO)C[C@@H]3O[C@H]1C[C@@H](N)[C@@H](OC)[C@H](C)O1` [3',4'-diepi-4'-O-methyl doxorubicin, 3',4'-diepi-4'-O-methyl-doxorubicin] was tested, and the IC50 ([1]; in vitro, HeLa cells) was 0.0059 mg/L (≈ 0.0106 µM), the “LTS (long term survivors)” value ([2]; 1.9 mg/kg) was 0/10 and the T/C % ([2]; 1.9 mg/kg) was 180%. The Toxicity ([2]; 1.9 mg/kg) was 0/10, the “LTS (long term survivors)” value ([2]; 2.9 mg/kg) was 0/10 and the T/C % ([2]; 2.9 mg/kg) was 200%. The Toxicity ([2]; 2.9 mg/kg) was 2/10, the “LTS (long term survivors)” value ([2]; 4.4 mg/kg) was 0/10 and the T/C % ([2]; 4.4 mg/kg) was 109%. For the same compound, the Toxicity ([2]; 4.4 mg/kg) was 10/10, the “LTS (long term survivors)” value ([2]; 6.6 mg/kg) was 0/10 and the T/C % ([2]; 6.6 mg/kg) was 76%. For the same compound, the Toxicity ([2]; 6.6 mg/kg) was 10/10.

`COc1cccc2c1C(=O)c1c(O)c3c(c(O)c1C2=O)C[C@@](O)(C(C)=O)C[C@@H]3O[C@H]1C[C@H](N)[C@H](O)[C@H](C)O1` [Daunorubicin, reference compound] was tested, and the IC50 ([1]; HeLa) was 0.014 mg/L (≈ 0.0265 µM), the “LTS (long term survivors)” value ([2]; 2.9 mg/kg) was 0/18 and the Toxicity ([2]; 2.9 mg/kg) was 0/18. For the same compound, the “LTS (long term survivors)” value ([2]; 4.4 mg/kg) was 0/18, the Toxicity ([2]; 4.4 mg/kg) was 0/18 and the “LTS (long term survivors)” value ([2]; 6.6 mg/kg) was 0/8. The T/C % ([2]; 6.6 mg/kg) was 163% and the Toxicity ([2]; 6.6 mg/kg) was 3/8.

With `COc1cccc2c1C(=O)c1c(O)c3c(c(O)c1C2=O)C[C@@](O)(C(=O)CO)C[C@@H]3O[C@H]1C[C@H](N)[C@H](O)[C@H](C)O1` [Doxorubicin, reference compound] the IC50 ([1]; HeLa) was 0.0095 mg/L (≈ 0.0175 µM), the “LTS (long term survivors)” value ([2]; 4.4 mg/kg) was 2/10 and the T/C % ([2]; 4.4 mg/kg) was 209%. For the same compound, the Toxicity ([2]; 4.4 mg/kg) was 0/8, the “LTS (long term survivors)” value ([2]; 6.6 mg/kg) was 0/10 and the T/C % ([2]; 6.6 mg/kg) was 233%. For the same compound, the Toxicity ([2]; 6.6 mg/kg) was 0/8.
